Earlier results, collected in patent US8968710B1, “Topical anesthetic” (priority 2005, dated 2015).

- solubility in alcohol, ether, benzene and chloroform (alcohol, ether, benzene, chloroform): soluble
- solubility in water (water): very slightly soluble
Structure (SMILES): CCCCNc1ccc(C(=O)OCCN(C)C)cc1 [Tetracaine]
